Laboratory results as given in PubChem BioAssay AID330 (DTP/NCI, 2004).
Several values for one entry are separate records, joined by “and”; a condition that tells them apart may be missing. Identical values can stand only once. Toxic doses and inconclusive results are not listed. Rule for the calls: active = survival T/C of 150% or more; inactive = T/C below 125% in these data.

Test system: P388 leukemia ip, CD2F1 mice, survival T/C
Assay: NCI In Vivo Anticancer Drug Screen. Data for tumor model P388 Leukemia (intraperitoneal) in CD2F1 (CDF1) mice
Conditions: higher = longer survival
Summary of the method: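 Mice carrying the transplanted tumor received test compound or vehicle. Survival was recorded in each group, and the value is the treated-group measurement divided by that of the vehicle-treated control group.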

[1] = endpoint: median survival time, dose: 50.0 mg/kg/injection, schedule: Q01DX009 (ip), vehicle: saline with Tween-80
[2] = endpoint: median survival time, dose: 50.0 mg/kg/injection, schedule: Q01DX005 (ip), vehicle: Klucel (hydroxypropylcellulose) (HPC)
[3] = endpoint: median survival time, dose: 100.0 mg/kg/injection, schedule: Q01DX005 (ip), vehicle: Klucel (hydroxypropylcellulose) (HPC)
[4] = endpoint: median survival time, dose: 200.0 mg/kg/injection, schedule: Q01DX005 (ip), vehicle: Klucel (hydroxypropylcellulose) (HPC)
[5] = endpoint: median survival time, dose: 50.0 mg/kg/injection, schedule: Q01DX005 (ip), vehicle: saline
[6] = endpoint: median survival time, dose: 100.0 mg/kg/injection, schedule: Q01DX005 (ip), vehicle: saline
[7] = endpoint: median survival time, dose: 200.0 mg/kg/injection, schedule: Q01DX005 (ip), vehicle: saline
[8] = endpoint: median survival time, dose: 6.25 mg/kg/injection, schedule: Q01DX009 (ip), vehicle: saline with Tween-80
[9] = endpoint: median survival time, dose: 12.5 mg/kg/injection, schedule: Q01DX009 (ip), vehicle: saline with Tween-80
[10] = endpoint: median survival time, dose: 25.0 mg/kg/injection, schedule: Q01DX009 (ip), vehicle: saline with Tween-80
[11] = endpoint: median survival time, dose: 100.0 mg/kg/injection, schedule: Q01DX009 (ip), vehicle: saline
[12] = endpoint: median survival time, dose: 50.0 mg/kg/injection, schedule: Q01DX005 (ip), vehicle: saline with Tween-80
[13] = endpoint: median survival time, dose: 100.0 mg/kg/injection, schedule: Q01DX009 (ip), vehicle: saline with Tween-80

Measured: T/C

Cc1ccc(NC(=O)Nc2cccnc2)cc1NC(=O)Nc1cccnc1
inactive: endpoint: median survival time, dose: 50.0 mg/kg/injection, schedule: Q01DX009 (ip), vehicle: Klucel (hydroxypropylcellulose) (HPC) 102 % of control | endpoint: median survival time, dose: 100.0 mg/kg/injection, schedule: Q01DX009 (ip), vehicle: Klucel (hydroxypropylcellulose) (HPC) 110 % of control | endpoint: median survival time, dose: 200.0 mg/kg/injection, schedule: Q01DX009 (ip), vehicle: Klucel (hydroxypropylcellulose) (HPC) 100 % of control

NOCc1cccc(CON)c1
inactive: [1] 91 % of control

COc1ccc2nc3ccccc3c(NCCCCCCNc3c4ccccc4nc4ccc(OC)cc34)c2c1
inactive: endpoint: median survival time, dose: 0.62 mg/kg/injection, schedule: Q## X009 (ip), vehicle: lactic acid 108 % of control | endpoint: median survival time, dose: 0.63 mg/kg/injection, schedule: Q01DX009 (ip), vehicle: other 100 % of control | endpoint: median survival time, dose: 1.25 mg/kg/injection, schedule: Q01DX009 (ip), vehicle: other 107 % of control | endpoint: median survival time, dose: 1.25 mg/kg/injection, schedule: Q## X009 (ip), vehicle: lactic acid 111 % of control | endpoint: median survival time, dose: 2.5 mg/kg/injection, schedule: Q01DX009 (ip), vehicle: other 100 % of control | endpoint: median survival time, dose: 2.5 mg/kg/injection, schedule: Q## X009 (ip), vehicle: lactic acid 119 % of control | endpoint: median survival time, dose: 3.75 mg/kg/injection, schedule: Q01DX009 (ip), vehicle: other 109 % of control | endpoint: median survival time, dose: 5.0 mg/kg/injection, schedule: Q01DX009 (ip), vehicle: other 116 % of control | endpoint: median survival time, dose: 5.0 mg/kg/injection, schedule: Q## X009 (ip), vehicle: lactic acid 113 % of control

O=[N+]([O-])c1cc2c(ccc3occc32)o1
inactive: [2] 102 % of control | [3] 97 % of control | [4] 98 % of control

CCCCCCCCOC(=O)c1ccccc1OP(=O)(N(C)C)N(C)C
inactive: [5] 107 % of control | [6] 112 % of control | [7] 100 % of control

O=S1(=O)CC(Sc2ccccc2)C1
inactive: endpoint: median survival time, dose: 100.0 mg/kg/injection, schedule: Q01DX001 (ip), vehicle: saline with Tween-80 102 % of control | endpoint: median survival time, dose: 200.0 mg/kg/injection, schedule: Q01DX001 (ip), vehicle: saline with Tween-80 96 % of control | endpoint: median survival time, dose: 400.0 mg/kg/injection, schedule: Q01DX001 (ip), vehicle: saline with Tween-80 109 % of control

C=CCC1CCC/C1=N\O (stereo not given)
inactive: endpoint: median survival time, dose: 60.0 mg/kg/injection, schedule: Q01DX005 (ip), vehicle: saline with Tween-80 105 % of control | endpoint: median survival time, dose: 120.0 mg/kg/injection, schedule: Q01DX005 (ip), vehicle: saline with Tween-80 104 % of control | endpoint: median survival time, dose: 240.0 mg/kg/injection, schedule: Q01DX005 (ip), vehicle: saline with Tween-80 100 % of control

COc1cc(C(C)c2cc3c(cc2OCCO)OCO3)cc(OC)c1OC (stereo not given)
inactive: endpoint: median survival time, dose: 25.0 mg/kg/injection, schedule: Q01DX005 (ip), vehicle: saline with Tween-80 92 % of control and 94 % of control
active: endpoint: median survival time, dose: 400.0 mg/kg/injection, schedule: Q01DX005 (ip), vehicle: saline with Tween-80 161 % of control and 180 % of control

CC[C@H]1CN2CCc3cc(OC)c(OC)cc3[C@@H]2C[C@@H]1C[C@@H]1c2cc(OC)c(OC)cc2CCN1N=O
inactive: [8] 96 % of control | [9] 99 % of control | [10] 107 % of control | [1] 100 % of control

O=C(Nc1ccc(Cl)c([N+](=O)[O-])c1)Nc1nc2ccccc2s1
inactive: [2] 98 % of control | [3] 86 % of control | [4] 87 % of control

CCN(CCCN(C)C)c1ccc(/C=C/c2ccnc3ccccc23)cc1
inactive: [11] 108 % of control

CC(=O)c1ccc(Cl)c(N=Cc2cc(Br)ccc2O)c1
inactive: [2] 88 % of control | [3] 95 % of control | [4] 92 % of control

Oc1ccccc1-c1cc(-c2ccccc2)nc(NCCCCCCCCNc2nc(-c3ccccc3)cc(-c3ccccc3O)n2)n1
inactive: endpoint: median survival time, dose: 100.0 mg/kg/injection, schedule: Q04DX003 (ip), vehicle: saline 92 % of control | endpoint: median survival time, dose: 200.0 mg/kg/injection, schedule: Q04DX003 (ip), vehicle: saline 94 % of control | endpoint: median survival time, dose: 400.0 mg/kg/injection, schedule: Q04DX003 (ip), vehicle: saline 88 % of control

Nc1nc(=S)c2n[nH]nc2[nH]1
inactive: endpoint: median survival time, dose: 11.0 mg/kg/injection, schedule: Q01DX009 (ip), vehicle: saline with Tween-80 101 % of control and 105 % of control | [9] 104 % of control | endpoint: median survival time, dose: 16.5 mg/kg/injection, schedule: Q01DX009 (ip), vehicle: saline with Tween-80 98 % of control and 103 % of control | [10] 103 % of control and 91 % of control | endpoint: median survival time, dose: 37.5 mg/kg/injection, schedule: Q01DX009 (ip), vehicle: saline with Tween-80 98 % of control and 101 % of control

C[C@H]1[C@H](O)[C@H]2[C@@H](CCC3=CC(=O)CC[C@@]32C)[C@@H]2CC[C@H](O)[C@@]12C
inactive: endpoint: median survival time, dose: 100.0 mg/kg/injection, schedule: Q04DX003 (ip), vehicle: saline with Tween-80 104 % of control | endpoint: median survival time, dose: 200.0 mg/kg/injection, schedule: Q04DX003 (ip), vehicle: saline with Tween-80 100 % of control | endpoint: median survival time, dose: 400.0 mg/kg/injection, schedule: Q04DX003 (ip), vehicle: saline with Tween-80 100 % of control

NNc1n[nH]c(=S)n1N
inactive: endpoint: median survival time, dose: 6.25 mg/kg/injection, schedule: Q01DX009 (ip), vehicle: Klucel (hydroxypropylcellulose) (HPC) 94 % of control | [8] 109 % of control | endpoint: median survival time, dose: 12.5 mg/kg/injection, schedule: Q01DX009 (ip), vehicle: Klucel (hydroxypropylcellulose) (HPC) 94 % of control | [9] 100 % of control | endpoint: median survival time, dose: 25.0 mg/kg/injection, schedule: Q01DX009 (ip), vehicle: Klucel (hydroxypropylcellulose) (HPC) 106 % of control | [10] 104 % of control

O=S(=O)(O)C1=CC(=N/Br)/C=CC/1=N\Br
inactive: [5] 118 % of control and 119 % of control | [6] 115 % of control and 121 % of control | [7] 118 % of control and 121 % of control

CCOC(=O)C1=C(C)/C(=C/c2[n-]c(C)c(C(=O)OCC)c2C)N=C1C.CCOC(=O)C1=C(C)/C(=C/c2[n-]c(C)c(C(=O)OCC)c2C)N=C1C.[Co+2]
inactive: endpoint: mean survival time, dose: 12.5 mg/kg/injection, schedule: Q01DX001 (ip), vehicle: saline with Tween-80 95 % of control | endpoint: mean survival time, dose: 25.0 mg/kg/injection, schedule: Q01DX001 (ip), vehicle: saline with Tween-80 92 % of control | endpoint: mean survival time, dose: 50.0 mg/kg/injection, schedule: Q01DX001 (ip), vehicle: saline with Tween-80 90 % of control

CCOC(=O)Nc1ccc(C2OCCS2)cc1 (stereo not given)
inactive: [12] 86 % of control | endpoint: median survival time, dose: 200.0 mg/kg/injection, schedule: Q01DX005 (ip), vehicle: saline with Tween-80 90 % of control

COc1cc(C=C2C(=O)C=CC2=O)ccc1O
inactive: endpoint: median survival time, dose: 12.5 mg/kg/injection, schedule: Q04DX002 (ip), vehicle: saline 92 % of control | endpoint: median survival time, dose: 25.0 mg/kg/injection, schedule: Q04DX002 (ip), vehicle: saline 96 % of control

CCCCN(CCCC)c1nsc(N2CCOCC2)n1
inactive: [1] 94 % of control | [13] 100 % of control | endpoint: median survival time, dose: 200.0 mg/kg/injection, schedule: Q01DX009 (ip), vehicle: saline with Tween-80 108 % of control

O=NNc1nc(-c2ccccc2)ns1
inactive: endpoint: median survival time, dose: 1.56 mg/kg/injection, schedule: Q01DX009 (ip), vehicle: water 100 % of control | endpoint: median survival time, dose: 3.12 mg/kg/injection, schedule: Q01DX009 (ip), vehicle: water 100 % of control and 101 % of control | endpoint: median survival time, dose: 6.25 mg/kg/injection, schedule: Q01DX009 (ip), vehicle: water 104 % of control and 97 % of control | endpoint: median survival time, dose: 12.5 mg/kg/injection, schedule: Q01DX009 (ip), vehicle: water 100 % of control and 97 % of control | endpoint: median survival time, dose: 25.0 mg/kg/injection, schedule: Q01DX009 (ip), vehicle: water 101 % of control and 97 % of control | endpoint: median survival time, dose: 50.0 mg/kg/injection, schedule: Q01DX009 (ip), vehicle: water 100 % of control

CC(C)CC(NC(=O)C(N)Cc1c[nH]c2ccccc12)C(=O)O (stereo not given)
inactive: endpoint: median survival time, dose: 50.0 mg/kg/injection, schedule: Q01DX009 (ip), vehicle: saline 96 % of control | [11] 95 % of control | endpoint: median survival time, dose: 200.0 mg/kg/injection, schedule: Q01DX009 (ip), vehicle: saline 118 % of control

CN(C)C1C(=O)C(C(N)=O)=C(O)C2(O)C(=O)C3=C(O)c4c(O)cccc4C(C)(O)C3C(O)C12.[Cl][Sb]([Cl])[Cl] (stereo not given)
inactive: [12] 113 % of control | endpoint: median survival time, dose: 100.0 mg/kg/injection, schedule: Q01DX005 (ip), vehicle: saline with Tween-80 99 % of control

CCn1c2ccccc2c2cc(NC(=O)N(CCCl)N=O)ccc21
active: [13] 189 % of control
inactive: [8] 119 % of control | [9] 122 % of control

COc1ccc(C(C)c2cc3c(cc2OC)OCO3)cc1O (stereo not given)
inactive: endpoint: median survival time, dose: 50.0 mg/kg/injection, schedule: Q01DX005 (ip), vehicle: distilled water + Tween-80 111 % of control | endpoint: median survival time, dose: 100.0 mg/kg/injection, schedule: Q01DX005 (ip), vehicle: distilled water + Tween-80 102 % of control | endpoint: median survival time, dose: 200.0 mg/kg/injection, schedule: Q01DX005 (ip), vehicle: distilled water + Tween-80 105 % of control
